{
  "source": "patent US11505573B2",
  "about": "“Peptide macrocycles against Acinetobacter baumannii” (Hoffmann-La Roche Inc., priority 2018, dated 2022)",
  "tested_on": "A. baumannii ATCC 17978",
  "test": "Antimicrobial susceptibility testing: 50% growth inhibitory concentration (IC50) determination in Iso-Sensitest broth",
  "format": "cell-based",
  "conditions": "Acinetobacter baumannii; A. baumannii strain ATCC17978; Iso-Sensitest medium; OD 600 nm over 16 h; 35±2° C.; read-out: IC50 ATCC17978 (50% growth inhibition concentration)",
  "procedure": "Antimicrobial Susceptibility Testing: 50% Growth Inhibitory Concentration (IC50) Determination The in vitro antimicrobial activity of the compounds was alternatively determined according to the following procedure: The assay used a 10-points Iso-Sensitest broth medium to measure quantitatively the in vitro activity of the compounds against A. baumannii ATCC 17978. Stock compounds in DMSO were serially twofold diluted (e.g. range from 10 to 0.02 μM final concentration) in 384 wells microtiter plates and inoculated with 49 μl the bacterial suspension in Iso-Sensitest medium to have a final cell concentration of ˜5×10^(5) CFU/ml in a final volume/well of […] Microtiter plates were incubated at 35±2° C. Bacterial cell growth was determined by the measurement of optical density at λ=600 nm each 20 minutes over a time course of 16 h. Growth inhibition was calculated during the logarithmic growth of the bacterial cells by determination of the concentration inhibiting 50% (IC50) and 90% (IC90) of the growth. Table 1 provides the 50% growth inhibitory concentrations (IC50) in micromoles per liter of the compounds of present invention obtained against the A. baumannnii strain ATCC17978.",
  "data": [
    {"smiles": "CN1C(=O)[C@H](CCCCN)NC(=O)[C@H](CCCN)NCc2cccnc2Sc2c(Cl)ccc(-c3ccc(S(=O)(=O)O)cc3)c2CNC(=O)[C@@H]1Cc1c[nH]c2ccccc12", "note": "[Example 1.00, 4-[(11S,14S,17S)-14-(4-Aminobutyl)-11-(3-aminopropyl)-25-chloro-17-(1H-indol-3-ylmethyl)-16-methyl-12,15,18-trioxo-2-thia-4,10,13,16,19-pentazatricyclo[19.4.0.03,8]pentacosa-1(25),3,5,7,21,23-hexaen-22-yl]benzenesulfonic acid]", "values": [
      {"measurement": "IC50", "result": 20, "unit": "nM"}
    ]},
    {"smiles": "CN1C(=O)[C@H](CCCCN)NC(=O)[C@H](CCCN)NCc2cccnc2Sc2c(Cl)ccc(-c3ccc4nn[nH]c4c3)c2CNC(=O)[C@@H]1Cc1c[nH]c2ccccc12", "note": "[Example 1.01, (11S,14S,17S)-14-(4-aminobutyl)-11-(3-aminopropyl)-22-(3H-benzotriazol-5-yl)-25-chloro-17-(1H-indol-3-ylmethyl)-16-methyl-2-thia-4,10,13,16,19-pentazatricyclo[19.4.0.03,8]pentacosa-1(25),3,5,7,21,23-hexaene-12,15,18-trione]", "values": [
      {"measurement": "IC50", "result": 20, "unit": "nM"}
    ]},
    {"smiles": "CN1C(=O)[C@H](CCCCN)NC(=O)[C@H](CCCN)NCc2cccnc2Sc2c(Cl)ccc(-c3ccc(-c4nnn[nH]4)cc3)c2CNC(=O)[C@@H]1Cc1c[nH]c2ccccc12", "note": "[Example 1.02, (11S,14S,17S)-14-(4-aminobutyl)-11-(3-aminopropyl)-25-chloro-17-(1H-indol-3-ylmethyl)-16-methyl-22-[4-(1H-tetrazol-5-yl)phenyl]-2-thia-4,10,13,16,19-pentazatricyclo[19.4.0.03,8]pentacosa-1(25),3,5,7,21,23-hexaene-12,15,18-trione]", "values": [
      {"measurement": "IC50", "result": 100, "unit": "nM"}
    ]},
    {"smiles": "CN1C(=O)[C@H](CCCCN)NC(=O)[C@H](CCCN)NCc2cccnc2Sc2c(Cl)ccc(-c3cccc(-c4nnn[nH]4)c3)c2CNC(=O)[C@@H]1Cc1c[nH]c2ccccc12", "note": "[Example 1.03, (11S,14S,17S)-14-(4-aminobutyl)-11-(3-aminopropyl)-25-chloro-17-(1H-indol-3-ylmethyl)-16-methyl-22-[3-(1H-tetrazol-5-yl)phenyl]-2-thia-4,10,13,16,19-pentazatricyclo[19.4.0.03,8]pentacosa-1(25),3,5,7,21,23-hexaene-12,15,18-trione]", "values": [
      {"measurement": "IC50", "result": 360, "unit": "nM"}
    ]},
    {"smiles": "CC(=O)NS(=O)(=O)c1ccc(-c2ccc(Cl)c3c2CNC(=O)[C@H](Cc2c[nH]c4ccccc24)N(C)C(=O)[C@H](CCCCN)NC(=O)[C@H](CCCN)NCc2cccnc2S3)cc1", "note": "[Example 1.04, N-[4-[(11S,14S,17S)-14-(4-aminobutyl)-11-(3-aminopropyl)-25-chloro-17-(1H-indol-3-ylmethyl)-16-methyl-12,15,18-trioxo-2-thia-4,10,13,16,19-pentazatricyclo[19.4.0.03,8]pentacosa-1(21),3,5,7,22,24-hexaen-22-yl]phenyl]sulfonylacetamide]", "values": [
      {"measurement": "IC50", "result": 20, "unit": "nM"}
    ]},
    {"smiles": "CN1C(=O)[C@H](CCCCN)NC(=O)[C@H](CCCN)NCc2cccnc2Sc2c(Cl)ccc(-c3cnc(=O)[nH]c3)c2CNC(=O)[C@@H]1Cc1c[nH]c2ccccc12", "note": "[Example 1.05, (11S,14S,17S)-14-(4-aminobutyl)-11-(3-aminopropyl)-25-chloro-17-(1H-indol-3-ylmethyl)-16-methyl-22-(2-oxo-1H-pyrimidin-5-yl)-2-thia-4,10,13,16,19-pentazatricyclo[19.4.0.03,8]pentacosa-1(25),3,5,7,21,23-hexaene-12,15,18-trione]", "values": [
      {"measurement": "IC50", "result": 20, "unit": "nM"}
    ]},
    {"smiles": "CN1C(=O)[C@H](CCCCN)NC(=O)[C@H](CCCN)NCc2cccnc2Sc2c(Cl)ccc(-c3ccn(Cc4nnn[nH]4)c(=O)c3)c2CNC(=O)[C@@H]1Cc1c[nH]c2ccccc12", "note": "[Example 2.00, (11S,14S,17S)-14-(4-Aminobutyl)-11-(3-aminopropyl)-25-chloro-17-(1H-indol-3-ylmethyl)-16-methyl-22-[2-oxo-1-(1H-tetrazol-5-ylmethyl)-4-pyridyl]-2-thia-4,10,13,16,19-pentazatricyclo[19.4.0.03,8]pentacosa-1(25), 3(8),4,6,21,23-hexaene-12,15,18-trione]", "values": [
      {"measurement": "IC50", "result": 80, "unit": "nM"}
    ]},
    {"smiles": "CN1C(=O)[C@H](CCCCN)NC(=O)[C@H](CCCN)NCc2cccnc2Sc2c(Cl)ccc(-c3ccc(-c4nsc(=O)[nH]4)cc3)c2CNC(=O)[C@@H]1Cc1c[nH]c2ccccc12", "note": "[Example 3.00, (11S,14S,17S)-14-(4-Aminobutyl)-11-(3-aminopropyl)-25-chloro-17-(1H-indol-3-ylmethyl)-16-methyl-22-[4-(5-oxo-4H-1,2,4-thiadiazol-3-yl)phenyl]-2-thia-4,10,13,16,19-pentazatricyclo[19.4.0.03,8]pentacosa-1(25), 3(8),4,6,21,23-hexaene-12,15,18-trione]", "values": [
      {"measurement": "IC50", "result": 80, "unit": "nM"}
    ]},
    {"smiles": "CN1C(=O)[C@H](CCCCN)NC(=O)[C@H](CCCN)NCc2cccnc2Sc2c(Cl)ccc(-c3ccc(-c4noc(=O)[nH]4)cc3)c2CNC(=O)[C@@H]1Cc1c[nH]c2ccccc12", "note": "[Example 4.00, (11S,14S,17S)-14-(4-Aminobutyl)-11-(3-aminopropyl)-25-chloro-17-(1H-indol-3-ylmethyl)-16-methyl-22-[4-(5-oxo-4H-1,2,4-oxadiazol-3-yl)phenyl]-2-thia-4,10,13,16,19-pentazatricyclo[19.4.0.03,8]pentacosa-1(25), 3(8),4,6,21,23-hexaene-12,15,18-trione]", "values": [
      {"measurement": "IC50", "result": 20, "unit": "nM"}
    ]},
    {"smiles": "CN1C(=O)[C@H](CCCCN)NC(=O)[C@H](CCCN)NCc2cccnc2Sc2cccc(-c3ccc(-c4nnn[nH]4)cc3)c2CNC(=O)[C@@H]1Cc1c[nH]c2ccccc12", "note": "[Example 5.00, (11S,14S,17S)-14-(4-Aminobutyl)-1-(3-aminopropyl)-17-(1H-indol-3-ylmethyl)-16-methyl-22-[4-(1H-tetrazol-5-yl)phenyl]-2-thia-4,10,13,16,19-pentazatricyclo[19.4.0.03,8]pentacosa-1(25), 3(8),4,6,21,23-hexaene-12,15,18-trione]", "values": [
      {"measurement": "IC50", "result": 20, "unit": "nM"}
    ]},
    {"smiles": "CN1C(=O)[C@H](CCCCN)NC(=O)[C@H](CCCN)NCc2nccnc2Sc2c(Cl)ccc(-c3ccc(S(=O)(=O)O)cc3)c2CNC(=O)[C@@H]1Cc1c[nH]c2ccccc12", "note": "[Example 6.00, 4-[(11S,14S,17S)-14-(4-Aminobutyl)-1-(3-aminopropyl)-25-chloro-17-(1H-indol-3-ylmethyl)-16-methyl-12,15,18-trioxo-2-thia-4,7,10,13,16,19-hexazatricyclo[19.4.0.03,8]pentacosa-1(25), 3(8),4,6,21,23-hexaen-22-yl]benzenesulfonic acid]", "values": [
      {"measurement": "IC50", "result": 20, "unit": "nM"}
    ]},
    {"smiles": "CN1C(=O)[C@H](CCCCN)NC(=O)[C@H](CCCN)NCc2cccnc2Sc2c(F)ccc(-c3ccc(S(=O)(=O)O)cc3)c2CNC(=O)[C@@H]1Cc1c[nH]c2ccccc12", "note": "[Example 7.00, 4-[(11S,14S,17S)-14-(4-Aminobutyl)-11-(3-aminopropyl)-25-fluoro-17-(1H-indol-3-ylmethyl)-16-methyl-12,15,18-trioxo-2-thia-4,10,13,16,19-pentazatricyclo[19.4.0.03,8]pentacosa-1(25), 3(8),4,6,21,23-hexaen-22-yl]benzenesulfonic acid]", "values": [
      {"measurement": "IC50", "result": 20, "unit": "nM"}
    ]},
    {"smiles": "CN1C(=O)[C@H](CCCCN)NC(=O)[C@H](CCCN)NCc2cccnc2Sc2c(F)ccc(-c3ccc(-c4nnn[nH]4)cc3)c2CNC(=O)[C@@H]1Cc1c[nH]c2ccccc12", "note": "[Example 7.01, (11S,14S,17S)-14-(4-aminobutyl)-11-(3-aminopropyl)-25-fluoro-17-(1H-indol-3-ylmethyl)-16-methyl-22-[4-(1H-tetrazol-5-yl)phenyl]-2-thia-4,10,13,16,19-pentazatricyclo[19.4.0.03,8]pentacosa-1(25),3(8),4,6,21,23-hexaene-12,15,18-trione]", "values": [
      {"measurement": "IC50", "result": 20, "unit": "nM"}
    ]},
    {"smiles": "CC(=O)NS(=O)(=O)c1ccc(-c2ccc(F)c3c2CNC(=O)[C@H](Cc2c[nH]c4ccccc24)N(C)C(=O)[C@H](CCCCN)NC(=O)[C@H](CCCN)NCc2cccnc2S3)cc1", "note": "[Example 7.02, N-[4-[(11S,14S,17S)-14-(4-aminobutyl)-11-(3-aminopropyl)-25-fluoro-17-(1H-indol-3-ylmethyl)-16-methyl-12,15,18-trioxo-2-thia-4,10,13,16,19-pentazatricyclo[19.4.0.03,8]pentacosa-1(25),3(8),4,6,21,23-hexaen-22-yl]phenyl]sulfonylacetamide]", "values": [
      {"measurement": "IC50", "result": 30, "unit": "nM"}
    ]},
    {"smiles": "CN1C(=O)[C@H](CCCCN)NC(=O)[C@H](CCCN)NCc2cccnc2Sc2c(F)ccc(-c3ccc(C(=O)NS(C)(=O)=O)cc3)c2CNC(=O)[C@@H]1Cc1c[nH]c2ccccc12", "note": "[Example 7.03, 4-[(11S,14S,17S)-14-(4-aminobutyl)-11-(3-aminopropyl)-25-fluoro-17-(1H-indol-3-ylmethyl)-16-methyl-12,15,18-trioxo-2-thia-4,10,13,16,19-pentazatricyclo[19.4.0.03,8]pentacosa-1(25),3(8),4,6,21,23-hexaen-22-yl]-N-methylsulfonyl-benzamide]", "values": [
      {"measurement": "IC50", "result": 40, "unit": "nM"}
    ]},
    {"smiles": "CN1C(=O)[C@H](CCCN)NC(=O)[C@H](CCCN)NCc2cccnc2Sc2c(Cl)ccc(-c3ccc(S(=O)(=O)O)cc3)c2CNC(=O)[C@@H]1Cc1c[nH]c2ccccc12", "note": "[Example 8.00, 4-[(11S,14S,17S)-11,14-Bis(3-aminopropyl)-25-chloro-17-(1H-indol-3-ylmethyl)-16-methyl-12,15,18-trioxo-2-thia-4,10,13,16,19-pentazatricyclo[19.4.0.03,8]pentacosa-1(21),3,5,7,22,24-hexaen-22-yl]benzenesulfonic acid]", "values": [
      {"measurement": "IC50", "result": 20, "unit": "nM"}
    ]}
  ]
}
